# Measured values reported in patent US20220062299A1, “USE OF GLUCOCORTICOID STEROIDS IN PREVENTING AND TREATING CONDITIONS OF MUSCLE WASTING, AGING AND METABOLIC DISORDER” (NORTHWESTERN UNIVERSITY, priority 2018, published 2022).
# Columns and labels:
# [1] = test system: quadriceps muscle of mdx mice; assay: Tissue respirometry on quadriceps muscle; format: in vivo, mouse; conditions: weekly prednisone, opposite to daily dosing
# Description: Tissue respirometry. Whole-tissue analysis of basal rates of oxygen consumption (OCR) and extracellular acidification (ECAR) was conducted adapting reported conditions for intact muscle tissue analysis (Shintaku and Guttridge, 2016) to the XF96 Extracellular Flux Analyzer platform (Agilent, Santa Clara, Calif.). Immediately after mouse sacrification, target muscle (quadriceps) tissues were quickly collected, rinsed in clean PBS buffer and dissected into approximately 2×2×2 mm pieces. At least three biopsies were sampled for each tissue. […] Respirometry analysis was then performed on equilibrated tissue biopsies using the following protocol for each basal or post-injection read: 3 min mix, 5 min delay, 2 min measure. Basal rate reads were collected for 6 consecutive times, then drugs were injected and control reads gathered for additional 3 consecutive times. […] Compound concentrations were determined on literature and/or preliminary test assays on wildtype muscle biopsies, and the concentration of the compound when loaded in the cartridge port was 10× in appropriate solvent (typically DMSO or ddH2O). OCR/ECAR reads were averaged for same tissue replicates and subtracted of background noise values (empty wells with only medium and appropriate compound). […]
# mdx mice = assay: Multi-modal imaging (FDG-PET, microCT, MR) of live mdx mice; format: in vivo, mouse; conditions: weekly prednisone
# Source text: Multi-modal Imaging (FDG-PET, microCT, MR). Mice were anesthetized in an induction chamber with 3% isoflurane in oxygen, weighed, and then transferred to a dedicated imaging bed with isoflurane delivered via nosecone at 1-2%. Mice were placed in the prone position on a plastic bed and immobilized to minimize changes in position between scans. Respiratory signals were monitored using a digital monitoring system developed by Mediso (Mediso-USA, Boston, Mass.). Mice were imaged with a preclinical microPET/CT imaging system (nanoScan PET/CT, Mediso-USA, Boston, Mass.). CT data was acquired with a 2.2× magnification, <60 μm focal spot, 2×2 binning, with 480 projection views over a full circle, using 50 kVp/[…], with a 300 ms exposure time. The projection data was reconstructed with a voxel size of 250 μm and using filtered (Butterworth filter) backprojection software from Mediso. A bone mineral density standard (GRM GmbH, Moehrendorf, Germany) with hydroxyapatite (HA) from 0 to 1200 mg HA/cm^3 was used to convert the CT images from Hounsfield units to bone mineral density. The HA standard was imaged with the same parameters. For PET imaging, a target of 10 MBq of ^18F-fluordeoxyglucose (FDG) was injected intravenously after mice had been fasted for four hours. PET acquisition parameters were as follows: 1:1 coincidence detection and 30-minute acquisition time. MLEM reconstruction was used with CT for attenuation correction and scattering. Pixel size was set to 0.3×0.3 mm. After completion of PET/CT, each mouse was transferred to the MRI scanner and a reference standard consisting of one tube of canola oil and one tube of water was positioned above its back. MRI was performed on a 9.4T Bruker Biospec MRI system with a 30 cm bore, a 12 cm gradient insert, and an AutoPac laser positioned motorized bed (Bruker Biospin Inc, Billerica, Mass.). Respiratory signals and temperature were monitored using an MR-compatible physiologic monitoring system (SA Instruments, Stonybrook, N.Y.); a warm water circulating system was used to maintain body temperature. A 72 mm quadrature volume coil (Bruker Biospin, Inc, Billerica, Mass.) was used to image each mouse's whole body in two overlapping fields of view. First, the mouse was positioned with the thorax at the magnet's isocenter and imaged using a T1-weighted accelerated spin echo sequence (Rapid Acquisition with Relaxation Enhancement, RARE) with five pairs of interleaved axial slice stacks covering brain to mid-abdomen. TR was nominally set at 1000 ms; with respiratory gating the functional TR was approximately 1500 ms (range 1300-2000 ms). The following additional parameters were used: TE=6.25 ms, RARE factor 4, MTX=256×256, FOV 45×45 mm, 15 slices of 1 mm thick, 4 mm gap between slices, and 2 signal averages. […]
smiles,measurement,setting,value
"C[C@]12C=CC(=O)C=C1CC[C@@H]1[C@@H]2C(=O)C[C@@]2(C)[C@H]1CC[C@]2(O)C(=O)CO [prednisone, Prednisone]",glucose-fueled lactate production,[1],improved
same,valine-fueled oxygen consumption,[1],improved
same,18FDG uptake in fat,mdx mice,decreasing
same,fat mass accumulation (magnetic resonance),mdx mice,did not increase
same,muscle uptake of 18FDG,mdx mice,increase
same,"osteoporosis (bone mineral density, tomography)",mdx mice,did not induce osteoporosis
